Earlier results as cited in article PMC10017685 (Nature Communications, 2023).
Where two headings read alike, the source gives them in different places.

System: human erythrocytes
Parameters: method as in DBAASP
Conditions: cited from earlier work
[1] = toxicity class label 1 or 0, meaning of the labels not given, DBAASP HC50 data, human erythrocytes, ref DBAASP

| Sequence | Class (dedicated toxicity dataset used for toxicity classifier evaluation) [1] | Class (dedicated toxicity dataset used for toxicity classifier evaluation) |
| --- | --- | --- |
| FLPIVTNLLSGLL [DBAASP_2205] | 0 | – |
| FLPKILKVAAK [DBAASP_16465] | 0 | – |
| FLPKWALKWAAK [DBAASP_16468] | 0 | – |
| FLPLIAGVAANFLPKIFCLISKKC [DBAASP_6168] | 1 | – |
| FLPLIAGVAASILPKIFCFITKKC [DBAASP_6170] | 1 | – |
| FLPLIASLAANFVPKIFCKITKKC [DBAASP_3563] | 0 | – |
| FLPLIASVAANLVPKIFCKITKKC [DBAASP_3564] | 0 | – |
| FLPLILPSIVTALSSFLKQG [DBAASP_8197] | 0 | – |
| FLPLKKLRFGLL [DBAASP_5722] | 0 | – |
| FLPLLASLFSRLF [DBAASP_4935] | 1 | – |
| FLPLLLAGLPKLLCLFFKKC [DBAASP_1470] | 1 | – |
| FLPLVTMLLGKLF [DBAASP_3105] | 1 | – |
| FLPMLAGLAANFLPKIVCKITKKC [DBAASP_1892] | 1 | – |
| FLPVIASVAAKVLPKVFCFITKKC [DBAASP_6169] | 1 | – |
| FLQGIIDTVGKWL [DBAASP_18165] | 0 | – |
| FLQGIWDTVGKWL [DBAASP_18166] | 0 | – |
| FLQHIIGALGHLF [DBAASP_10244] | 0 | – |
| FLQHIIGALSHFF [DBAASP_10247] | 0 | – |
| FLQHIIGALTHIF [DBAASP_10246] | 0 | – |
| FLRFAGSVIHGAGHLVHHIGVAL [DBAASP_11350] | 0 | – |
| FLRFIGSVIHGIGHLVHHIGVAL [DBAASP_4193] | 0 | – |
| FLSAITSILGKFF [DBAASP_13350] | 0 | – |
| FLSAITSLLGKLL [DBAASP_4212] | 0 | – |
| FLSALWGVAKSLF [DBAASP_18190] | 0 | – |
| FLSGIVGMLGKLF [DBAASP_2204] | 1 | – |

| Sequence | Class (dedicated toxicity dataset used for toxicity classifier evaluation) [1] | Class (dedicated toxicity dataset used for toxicity classifier evaluation) |
| --- | --- | --- |
| FLSIIAKVLGSLF [DBAASP_3104] | 1 | – |
| FLSKIWDGVKSLL [DBAASP_18168] | 0 | – |
| FLSLALAALPKFLCLVFKKC [DBAASP_1468] | 1 | – |
| FLSLIPAAISAVSALANHF [DBAASP_10851] | 0 | – |
| FLSLIPHIASGIASLVKNF [DBAASP_12390] | 1 | – |
| FLSLIPHIVSGVAALANHL [DBAASP_12391] | 0 | – |
| FLSLIPHIVSGVASIAKHF [DBAASP_3889] | 0 | – |
| FLSLIPKAISAISALANHF [DBAASP_12627] | 0 | – |
| FLSLIPKAISAISALINHF [DBAASP_12628] | 1 | – |
| FLSLIPKAISAVSALANHF [DBAASP_12626] | 0 | – |
| FLSLIPKIAGGIAALAKHL [DBAASP_10835] | 1 | – |
| FLSLIPKIATGIAALAKHL [DBAASP_10833] | 1 | – |
| FLSLIPKIISAISALIKHF [DBAASP_12630] | 1 | – |
| FLSLIPKIISAISALINHF [DBAASP_12629] | 1 | – |
| FLSLLPHIASGIASLVSKF [DBAASP_12382] | 1 | – |
| FLSSIGKILGNLL [DBAASP_3103] | 0 | – |
| FLSTALKVAANVVPTLFCKITKKC [DBAASP_1888] | 0 | – |
| FLSTLLNVASKVVPTLFCKITKKC [DBAASP_1891] | 0 | – |
| FLSTLLNVASNVVPTLICKITKKC [DBAASP_1890] | 1 | – |
| FLWALFKVASK [DBAASP_646] | 0 | – |
| FPFLLSLIPSAISALKKL [DBAASP_18191] | 0 | – |
| FPLTWLKWWKWKK [DBAASP_17184] | 0 | – |
| FPVTFRFFKFFKG [DBAASP_9715] | 0 | – |
| FPVTWGWWKWWKG [DBAASP_9714] | 0 | – |
| FPVTWKWWKWWKG [DBAASP_7114] | 0 | – |

| Sequence | Class (dedicated toxicity dataset used for toxicity classifier evaluation) [1] | Class (dedicated toxicity dataset used for toxicity classifier evaluation) |
| --- | --- | --- |
| FPVTWPTKWLKG [DBAASP_9721] | 0 | – |
| FPVTWPTKWRKG [DBAASP_9717] | 0 | – |
| FPVTWPTKWWEG [DBAASP_9720] | 0 | – |
| FPVTWPTKWWKG [DBAASP_7115] | 0 | – |
| FPVTWPTKWWKS [DBAASP_9716] | 0 | – |
| FPVTWRWWKWWKG [DBAASP_716] | 0 | – |
| FVDLKKIANIINSIF [DBAASP_6701] | 0 | – |
| FWGALAKGALKLIPSLFSSFSKKD [DBAASP_948] | 1 | – |
| FWGFLGKLAMKAVPSLIGGNKK [DBAASP_8440] | 0 | – |
| FWGFLGKLAMKAVPSLIGGNKSSSK [DBAASP_8439] | 0 | – |
| FWGKLWEGVKNAI [DBAASP_3480] | 0 | – |
| FWSTIWNAAKSLI [DBAASP_18164] | 1 | – |
| FWSTLLSIGKSLL [DBAASP_18163] | 1 | – |
| GFCWRACVYRNGVRVCYRRCN [DBAASP_17226] | – | 0 |
| GFGMALKLLKKVL [DBAASP_3442] | 0 | – |
| GFGSLLGKALRLGANVL [DBAASP_3772] | 0 | – |
| GFKDLLKGAAKALKKTVLF [DBAASP_4908] | 0 | – |
| GFKDLLKGAAKALVKAVLF [DBAASP_4918] | 1 | – |
| GFKDLLKGAAKALVKTVKF [DBAASP_4910] | 0 | – |
| GFKDLLKGAAKALVKTVLF [DBAASP_2302] | 0 | – |
| GFKDLLKGAAKALVKTVLK [DBAASP_11235] | 0 | – |
| GFKDLLKGAKKALVKTVLF [DBAASP_4907] | 0 | – |
| GFKDLLKKAAKALVKTVLF [DBAASP_4906] | 1 | – |
| GFKKLLKGAAKALVKTVLF [DBAASP_4900] | 1 | – |
| GFKRIVQKIRDFLRNLV [DBAASP_11852] | 0 | – |

| Sequence | Class (dedicated toxicity dataset used for toxicity classifier evaluation) [1] | Class (dedicated toxicity dataset used for toxicity classifier evaluation) |
| --- | --- | --- |
| GFKRIVQRIKDFLRNLV [DBAASP_6070] | 0 | – |
| GFLGSLLKTGLKVGSNLL [DBAASP_2293] | 0 | – |
| GFMSKVANFAKKFAKGGVNAIMNQK [DBAASP_5718] | 0 | – |
| GFRDVLKGAAKAFVKTVAGHIAN [DBAASP_2304] | 0 | – |
| GFRKIVQKIRDFLRNLV [DBAASP_11853] | 0 | – |
| GFWGKLFKLGLHGIGLLHLHL [DBAASP_999] | 0 | – |
| GFWGKLWEGVKNAI [DBAASP_3479] | 1 | – |
| GIFDVLKNLAKGVITSLAS [DBAASP_16392] | 0 | – |
| GIGGALLSFGKSALKGLAKGLAEHF [DBAASP_12131] | 0 | – |
| GIGKFLHSAKKFGKAFVGEIMNS [DBAASP_5368] | 0 | – |
| GIGKFLKKAKKFGKAFVKILKK [DBAASP_763] | 0 | – |
| GIGKHVGKALKGLKGLLKGLGEC [DBAASP_6804] | 0 | – |
| GIGKHVGKALKGLKGLLKGLGES [DBAASP_3359] | 0 | – |
| GIIKKIIKKIIKK [DBAASP_13882] | 0 | – |
| GIIKKIIKKIIKKI [DBAASP_4594] | 0 | – |
| GIKDLLKGAAKALVKTVLF [DBAASP_11234] | 0 | – |
| GIKDLLKGAAKALVKTVLK [DBAASP_11236] | 0 | – |
| GIKDWIKGAAKKLIKTVASHIANQ [DBAASP_2305] | 0 | – |
| GIKEFAHSLGKFGKAFVGGILNQ [DBAASP_3817] | 0 | – |
| GIKKWVKGVAKGVAKDLAKKIL [DBAASP_11866] | 0 | – |
| GILGKLWEGVKSIF [DBAASP_8864] | 0 | – |
| GILKSLLKKLKKIIAK [DBAASP_8908] | – | 0 |
| GILKTIKSIASKLKRKAK [DBAASP_5476] | 0 | – |
| GILNTIKSIASKLKRKAK [DBAASP_5477] | 0 | – |
